# Patent US20200060273A1, “FUNGICIDAL COMPOSITIONS” (Novus International, Inc., priority 2018, published 2020)
# Like-named read-outs stand apart in the source and are kept apart here.
# Assays:
# [1] = system: Podosphaera xanthii (powdery mildew); assay: in vitro leaf disc assay on cucumber cotyledons; assay type: cell-based
# Botrytis cinerea = assay: in vitro mycelial disc assay; assay type: cell-based
# lettuce = conditions: in vivo
# Description: (§1) These experiments were carried out to test the phytotoxic effects of HMTBA on cucurbit (cucumber), strawberry, pepper, and lettuce target crops. Young plants of Jackson Classic variety cucumber, Tango variety head lettuce, Compadre variety bell pepper, and Festival variety strawberry were grown under standard greenhouse conditions. One week-post planting cucumber and pepper plants, three week old lettuce, and four month old strawberry plants were treated.
# (§2) Foliar sprays for HMTBA dilutions at 0.01, 0.1, 0.2 and 1.0% ai/v were applied twice per week for two weeks (total of four applications).
# (§3) Height and width for each plant was measured (centimeters) for indication of growth changes between treated and untreated plants. Phytotoxicity ratings were taken weekly on a 0-10 scale, where 0 indicates no crop injury and 10 is damage (yellowing, scarring, wilting, necrosis, death) to the total plant from the treatment.
# (§4) Area Under Disease Progress Curve (AUDPC), Abbot's formulation for percent control and all statistics were analyzed using ANOVA mean comparison with LSD test and a=0.05. Bartlett's test for homogeneity of variances was used to determine the need for data transformations. Letters in tables represent means separation significant and 0.05.
# pepper = conditions: in vivo
# Description: as §1, §2, §3, §4
# strawberry = conditions: in vivo
# Description: as §1, §2, §3, §4
# cucumber = conditions: in vivo
# Description: as §1, §2, §3, §4
# Fusarium graminearum = assay type: cell-based
smiles,measurement,setting,value
"CO/C=C(/C(=O)OC)c1ccccc1Oc1cc(Oc2ccccc2C#N)ncn1 [Azoxystrobin, azoxystrobin]",P. xanthii % Control,[1]; Azoxystrobin 0.00001% ai/v,17.66% de
same,Pest Severity Score 0-4,[1]; Azoxystrobin 0.00001% ai/v,2.67 ab
same,P. xanthii % Control,[1]; Azoxystrobin 0.0001% ai/v,44.23% c
same,Pest Severity Score 0-4,[1]; Azoxystrobin 0.0001% ai/v,1.75 c
same,P. xanthii % Control,[1]; Azoxystrobin 0.1% ai/v,97.62% a
same,Pest Severity Score 0-4,[1]; Azoxystrobin 0.1% ai/v,0.08 e
"O=C1C2CC=CCC2C(=O)N1SC(Cl)(Cl)Cl (stereo not shown) [Captan, captan]",B. cinerea Mycelial Growth % Control,Botrytis cinerea; Captan 0.001% ai/v,21.05% cd
same,B. cinerea Mycelial Growth Diameter (cm),Botrytis cinerea; Captan 0.001% ai/v,1.68 bc cm
same,B. cinerea Mycelial Growth % Control,Botrytis cinerea; Captan 0.01% ai/v,53.68% b
same,B. cinerea Mycelial Growth Diameter (cm),Botrytis cinerea; Captan 0.01% ai/v,0.97 cm·days
same,B. cinerea Mycelial Growth % Control,Botrytis cinerea; Captan 1% ai/v,96.81% a
same,B. cinerea Mycelial Growth Diameter (cm),Botrytis cinerea; Captan 1% ai/v,0.07 e cm
"CSCCC(O)C(=O)O (stereo not shown) [HMTBA, 2-hydroxy-4(methylthio)butanoic acid]",phytotoxic effects,lettuce,no phytotoxic effects were recorded
same,plant growth (height and width),lettuce,unchanged from the untreated check
same,P. xanthii % Control,[1]; 0.1% HMTBA,4.46% ef
same,Pest Severity Score 0-4,[1]; 0.1% HMTBA,3.17 a
same,Pepper Phytotoxicity Rating (0-10),"pepper; Compadre variety, pepper",0.0 a
same,phytotoxic effects,pepper,no phytotoxic effects were recorded
same,plant growth (height and width),pepper,unchanged from the untreated check
same,Strawberry Phytotoxicity Rating (0-10),"strawberry; Festival variety, strawberry",0.0 a
same,phytotoxic effects,strawberry,no phytotoxic effects were recorded
same,plant growth (height and width),strawberry,unchanged from the untreated check
same,phytotoxic effects,cucumber,no phytotoxic effects were recorded
same,plant growth (height and width),cucumber,unchanged from the untreated check
same,B. cinerea Mycelial Growth % Control,Botrytis cinerea; 0.1% HMTBA,10.08% de
same,B. cinerea Mycelial Growth Diameter (cm),Botrytis cinerea; 0.1% HMTBA,2.03 ab cm
same,F. graminiearum % Control,Fusarium graminearum; 0.1% HMTBA,4.93% ef
same,Spore Diameter (cm),Fusarium graminearum; 0.1% HMTBA,1.47 a cm
"CC1(C)CCC(Cc2ccc(Cl)cc2)C1(O)Cn1cncn1 (stereo not shown) [Metconazole, metconazole]",F. graminiearum % Control,Fusarium graminearum; Metconazole 0.001% ai/v,27.80% cde
same,Spore Diameter (cm),Fusarium graminearum; Metconazole 0.001% ai/v,1.00 b cm
same,F. graminiearum % Control,Fusarium graminearum; Metconazole 0.01% ai/v,66.98% ab
same,Spore Diameter (cm),Fusarium graminearum; Metconazole 0.01% ai/v,0.50 cd cm
same,F. graminiearum % Control,Fusarium graminearum; Metconazole 1% ai/v,93.08% a
same,Spore Diameter (cm),Fusarium graminearum; Metconazole 1% ai/v,0.17 cm·days
